Results: patent publication US20260083122A1, “METHOD AND AGENT FOR INACTIVATING BACTERIA OR VIRUSES, AND ANTIVIRAL BASE MATERIAL USING SAME” (NISSAN MOTOR CO., LTD., priority 2022, published 2026)

Biological target: S-RBD-His (Omicron) (SARS-CoV-2 B.1.1.529 (Omicron) Spike RBD Protein) (Severe acute respiratory syndrome coronavirus 2, UniProt P0DTC2, E484A/G339D/G446S/G496S/K417N/N440K/N501Y/Q493R/Q498R/S371L/S373P/S375F/S477N/T478K/Y505H)

O=[N+]([O-])[O-].O=[N+]1C2CC3CC(C2)CC1C3 [AZADO-Oxo]
shift of fluorescence peak (binding amount between spike protein and ACE2): a certain inactivation effect was obtained
